This note sets out measurements from ChEMBL document CHEMBL1143473, “Synthesis and evaluation of 18F-labeled dopamine D3 receptor ligands as potential PET imaging agents” (Bioorg Med Chem Lett, 2005).

Assay [1] can be described thus: Binding affinity towards 5-HT2 receptor using porcine cortical membrane and [3H]ketanserin as radioligand. Details: species or system Sus scrofa.
For assay [2], the target named is T1, D(4) dopamine receptor (Homo sapiens, UniProt P21917).
T1 sequence (P21917 whole entry): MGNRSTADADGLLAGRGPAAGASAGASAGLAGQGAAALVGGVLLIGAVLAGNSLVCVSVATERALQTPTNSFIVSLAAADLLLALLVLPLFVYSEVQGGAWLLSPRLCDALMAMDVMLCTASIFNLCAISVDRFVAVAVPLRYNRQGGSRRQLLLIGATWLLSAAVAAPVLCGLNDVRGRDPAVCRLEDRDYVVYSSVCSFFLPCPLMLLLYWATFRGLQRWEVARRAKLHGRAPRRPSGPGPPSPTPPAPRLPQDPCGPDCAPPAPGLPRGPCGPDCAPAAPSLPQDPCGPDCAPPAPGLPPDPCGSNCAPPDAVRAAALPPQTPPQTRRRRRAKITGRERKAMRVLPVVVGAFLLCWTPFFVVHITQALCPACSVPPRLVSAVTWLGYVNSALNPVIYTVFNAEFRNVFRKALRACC
In words: biochemical.
Description: Binding affinity towards Dopamine receptor D 4.4 using CHO cell line and [3H]spiperone as radioligand

Assay [3] concerns the target T2, D(2) dopamine receptor (Homo sapiens, UniProt P14416). In words: biochemical.
Description: Binding affinity towards Dopamine D2L receptor using CHO cell line and [3H]spiperone as radioligand
In assay [4] the target is D(1A) dopamine receptor (Sus scrofa, UniProt P50130). The assay can be described thus: Binding affinity towards Dopamine receptor D1 using porcine striatal membrane and [3H]-SCH- 23390 as radioligand. Set-up: species or system Striatum.
The target of assay [5] is T2, D(2) dopamine receptor. In words: biochemical. The source holds these as a separate data set.
Description: Binding affinity towards Dopamine D2S receptor using CHO cell line and [3H]spiperone as radioligand
The target of assay [6] is D(3) dopamine receptor (Homo sapiens, UniProt P35462). The assay can be described thus: biochemical.
D(3) dopamine receptor, sequence (P35462 whole entry): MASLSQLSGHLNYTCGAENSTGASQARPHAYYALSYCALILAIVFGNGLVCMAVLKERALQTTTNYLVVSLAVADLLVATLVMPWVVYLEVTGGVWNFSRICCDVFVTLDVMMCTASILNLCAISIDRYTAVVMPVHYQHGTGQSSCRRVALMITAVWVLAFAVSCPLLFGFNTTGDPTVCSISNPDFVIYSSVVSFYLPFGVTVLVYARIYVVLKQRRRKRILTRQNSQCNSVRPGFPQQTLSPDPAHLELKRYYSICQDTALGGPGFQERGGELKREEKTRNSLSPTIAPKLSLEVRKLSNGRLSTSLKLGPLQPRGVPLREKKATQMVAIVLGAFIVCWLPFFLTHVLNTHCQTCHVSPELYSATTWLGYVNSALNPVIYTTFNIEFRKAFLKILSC
Description: Binding affinity towards Dopamine receptor D3 using CHO cell line and [3H]-spiperone as radioligand

D(1A) dopamine receptor, sequence (P50130 whole entry): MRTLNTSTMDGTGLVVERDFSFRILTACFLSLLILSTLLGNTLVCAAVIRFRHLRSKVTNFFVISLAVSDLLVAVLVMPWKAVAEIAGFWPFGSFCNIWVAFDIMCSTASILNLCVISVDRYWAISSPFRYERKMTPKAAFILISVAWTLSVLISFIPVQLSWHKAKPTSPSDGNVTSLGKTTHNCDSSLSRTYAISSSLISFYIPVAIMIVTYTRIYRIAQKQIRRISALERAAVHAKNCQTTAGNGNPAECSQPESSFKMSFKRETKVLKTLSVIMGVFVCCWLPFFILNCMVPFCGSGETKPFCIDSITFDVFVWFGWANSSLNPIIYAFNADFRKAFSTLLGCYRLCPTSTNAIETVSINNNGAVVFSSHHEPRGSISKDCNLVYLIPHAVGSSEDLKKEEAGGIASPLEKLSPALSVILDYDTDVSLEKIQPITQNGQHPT
T2 sequence (P14416 whole entry): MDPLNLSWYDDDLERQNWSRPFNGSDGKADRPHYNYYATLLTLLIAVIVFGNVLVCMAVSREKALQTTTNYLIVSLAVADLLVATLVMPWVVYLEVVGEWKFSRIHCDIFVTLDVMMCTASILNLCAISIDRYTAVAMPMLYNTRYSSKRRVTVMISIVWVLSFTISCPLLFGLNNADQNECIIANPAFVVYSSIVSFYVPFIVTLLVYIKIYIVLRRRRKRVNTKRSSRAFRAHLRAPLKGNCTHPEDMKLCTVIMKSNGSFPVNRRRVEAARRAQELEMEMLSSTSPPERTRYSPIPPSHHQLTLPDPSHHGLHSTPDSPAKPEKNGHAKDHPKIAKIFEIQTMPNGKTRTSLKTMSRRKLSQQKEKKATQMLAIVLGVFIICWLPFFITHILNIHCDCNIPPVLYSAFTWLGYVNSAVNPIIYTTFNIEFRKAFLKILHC

Broadly, the Ki is the equilibrium dissociation constant of an inhibitor or competing ligand from its target. A higher Ki goes with a looser hold on the target. `COc1ccccc1N1CCN(CCCCNC(=O)c2ccc(F)cc2)CC1` gave a Ki in assay [1] of 2300 nM.
As to `COc1ccccc1N1CCN(CCCCNS(=O)(=O)c2ccc(F)cc2)CC1`, the Ki in assay [2] is 9.9 nM; in assay [3], 72 nM; in assay [4] it was 3500 nM; in assay [5] it was 120 nM; in assay [6] it was 210 nM.
With `O=S(=O)(NCCCCN1CCN(c2cccc(Cl)c2Cl)CC1)c1ccc(F)cc1`, the Ki in assay [1] was 830 nM; in assay [2] it was 17 nM; in assay [3], 39 nM; in assay [4] it was 1800 nM; in assay [5], 49 nM; in assay [6], 16 nM.
In the case of `O=C(NCCCCN1CCN(c2cccc(Cl)c2Cl)CC1)c1ccc(F)cc1`, the Ki in assay [1] worked out at 230 nM; in assay [2], 44 nM; in assay [4] it was 920 nM; in assay [5], 18 nM; in assay [6], 0.53 nM.
As to `O=C(NCCCCN1CCN(c2cccc(Cl)c2Cl)CC1)c1ccc(F)nc1`, the Ki in assay [1] came out at 84 nM; in assay [2], 100 nM; in assay [3] it was 21 nM; in assay [4] it was 1300 nM; in assay [5], 29 nM; in assay [6] it was 1.1 nM.
For the molecule `O=C(NCCCCN1CCN(c2cccc(Cl)c2Cl)CC1)c1cccc(F)n1`, the Ki in assay [1] is 240 nM; in assay [2], 97 nM; in assay [3], 44 nM; in assay [4], 910 nM; in assay [5] it was 57 nM; in assay [6] it was 9 nM.
On to `COc1ccccc1N1CCN(CCCCNC(=O)c2cccc(F)n2)CC1`, for which the Ki was determined as 3200 nM in assay [1]; 76 nM in assay [2]; 260 nM in assay [3]; 4100 nM in assay [4]; 400 nM in assay [5]; 86 nM in assay [6].
For `COc1ccccc1N1CCN(CCCCNC(=O)c2ccc(F)nc2)CC1`, the Ki amounted to 3700 nM in assay [1]; 130 nM in assay [2]; 160 nM in assay [3]; 6300 nM in assay [4]; 240 nM in assay [5]; 14 nM in assay [6].
Molecule `O=C(NCCCCN1CCN(c2cccc(Cl)c2Cl)CC1)c1cc2ccccc2s1` showed a Ki in assay [1] of 3000 nM.
